Data reported in US20260262643A1, “HERBICIDAL BENZOXAZINES” (FMC CORPORATION, priority 2022, published 2026).

How the values were obtained:
[1] = tested on: barnyardgrass; assay: Test C preemergence; type: in vivo, Echinochloa crusgalli; details: 0 to 100 scale (0 no effect, 100 complete control); for Plant response rating, Barnyardgrass: Preemergence, 500 g ai/ha, visual rating after 10 days; for Barnyardgrass plant response rating: Test C, preemergence, 125 g ai/ha
Summary of the method: (§1)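 Seeds in loam–sand blend received preemergence directed soil spray of test chemicals in non-phytotoxic solvent with surfactant; postemergence treatment was applied at one- to two-leaf stage (2–10 cm). After 10 days in greenhouse, injury rated visually versus untreated controls, 0 (no effect) to 100 (complete control).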

[2] = tested on: blackgrass; assay: Test C preemergence; type: in vivo, Alopecurus myosuroides; details: 0 to 100 scale (0 no effect, 100 complete control); for Plant response rating, Blackgrass: Preemergence, 500 g ai/ha, visual rating after 10 days; for Blackgrass plant response rating: Test C, preemergence, 125 g ai/ha
Summary of the method: as §1

[3] = tested on: corn; assay: Test C preemergence; type: in vivo, Zea mays; details: 0 to 100 scale (0 no effect, 100 complete control); for Plant response rating, Corn: Preemergence, 500 g ai/ha, visual rating after 10 days; for Corn plant response rating: Test C, preemergence, 125 g ai/ha
Summary of the method: as §1

[4] = tested on: green foxtail; assay: Test C preemergence; type: in vivo, Setaria viridis; details: 0 to 100 scale (0 no effect, 100 complete control); for Plant response rating, Foxtail, Green: Preemergence, 500 g ai/ha, visual rating after 10 days; for Foxtail, Green plant response rating: Test C, preemergence, 125 g ai/ha
Summary of the method: as §1

[5] = tested on: kochia; assay: Test C preemergence; type: in vivo, Bassia scoparia; details: 0 to 100 scale (0 no effect, 100 complete control); for Plant response rating, Kochia: Preemergence, 500 g ai/ha, visual rating after 10 days; for Kochia plant response rating: Test C, preemergence, 125 g ai/ha
Summary of the method: as §1

[6] = tested on: oat, wild; assay: Test C preemergence; type: in vivo, Avena fatua; details: 0 to 100 scale (0 no effect, 100 complete control); for Plant response rating, Oat, Wild: Preemergence, 500 g ai/ha, visual rating after 10 days; for Oat, Wild plant response rating: Test C, preemergence, 125 g ai/ha
Summary of the method: as §1

[7] = tested on: pigweed, palmer; assay: Test C preemergence; type: in vivo, Amaranthus palmeri; details: 0 to 100 scale (0 no effect, 100 complete control); for Plant response rating, Pigweed, Palmer: Preemergence, 500 g ai/ha, visual rating after 10 days; for Pigweed, Palmer plant response rating: Test C, preemergence, 125 g ai/ha
Summary of the method: as §1

[8] = tested on: ragweed; assay: Test C preemergence; type: in vivo, Ambrosia artemisiifolia; details: 0 to 100 scale (0 no effect, 100 complete control); for Plant response rating, Ragweed: Preemergence, 500 g ai/ha, visual rating after 10 days; for Ragweed plant response rating: Test C, preemergence, 125 g ai/ha
Summary of the method: as §1

[9] = tested on: ryegrass, Italian; assay: Test C preemergence; type: in vivo, Lolium multiflorum; details: 0 to 100 scale (0 no effect, 100 complete control); for Plant response rating, Ryegrass, Italian: Preemergence, 500 g ai/ha, visual rating after 10 days; for Ryegrass, Italian plant response rating: Test C, preemergence, 125 g ai/ha
Summary of the method: as §1

[10] = tested on: soybean; assay: Test C preemergence; type: in vivo, Glycine max; details: 0 to 100 scale (0 no effect, 100 complete control); for Plant response rating, Soybean: Preemergence, 500 g ai/ha, visual rating after 10 days; for Soybean plant response rating: Test C, preemergence, 125 g ai/ha
Summary of the method: as §1

[11] = tested on: wheat; assay: Test C preemergence; type: in vivo, Triticum aestivum; details: 0 to 100 scale (0 no effect, 100 complete control); for Plant response rating, Wheat: Preemergence, 500 g ai/ha, visual rating after 10 days; for Wheat plant response rating: Test C, preemergence, 125 g ai/ha
Summary of the method: as §1

[12] = tested on: barnyardgrass; assay: Test C postemergence; type: in vivo, Echinochloa crusgalli; details: 10 days
Summary of the method: as §1

[13] = tested on: blackgrass; assay: Test C postemergence; type: in vivo, Alopecurus myosuroides; details: 10 days
Summary of the method: as §1

[14] = tested on: corn; assay: Test C postemergence; type: in vivo, Zea mays; details: 10 days
Summary of the method: as §1

[15] = tested on: kochia; assay: Test C postemergence; type: in vivo, Bassia scoparia; details: 10 days
Summary of the method: as §1

[16] = tested on: oat, wild; assay: Test C postemergence; type: in vivo, Avena fatua; details: 10 days
Summary of the method: as §1

[17] = tested on: pigweed, palmer; assay: Test C postemergence; type: in vivo, Amaranthus palmeri; details: 10 days
Summary of the method: as §1

[18] = tested on: ragweed; assay: Test C postemergence; type: in vivo, Ambrosia artemisiifolia; details: 10 days
Summary of the method: as §1

[19] = tested on: ryegrass, Italian; assay: Test C postemergence; type: in vivo, Lolium multiflorum; details: 10 days
Summary of the method: as §1

[20] = tested on: soybean; assay: Test C postemergence; type: in vivo, Glycine max; details: 10 days
Summary of the method: as §1

[21] = tested on: wheat; assay: Test C postemergence; type: in vivo, Triticum aestivum; details: 10 days
Summary of the method: as §1

[22] = tested on: galium; assay: Test C postemergence; type: in vivo, Galium aparine; details: 10 days
Summary of the method: as §1

[23] = tested on: horseweed; assay: Test C postemergence; type: in vivo, Erigeron canadensis; details: 10 days
Summary of the method: as §1

[24] = tested on: barnyardgrass; assay: Test D flooded paddy test; type: in vivo, Echinochloa crus-galli; details: 250 g ai/ha, applied to paddy water, visual rating after 13 to 14 days, scale 0 to 100 (0 no effect, 100 complete control)
Method: (§2) Plant species in the flooded paddy test selected from barnyardgrass (Echinochloa crus-galli), ducksalad (Heteranthera limosa), rice (Oryza sativa), and sedge, umbrella (small-flower umbrella sedge, Cyperus difformis) were grown to the 2-leaf stage for testing. At time of treatment, test pots were flooded to 3 cm above the soil surface, treated by application of test compounds directly to the paddy water, and then maintained at that water depth for the duration of the test. Treated plants and controls were maintained in a greenhouse for 13 to 14 days, after which time all species were compared to controls and visually evaluated. Plant response ratings, summarized in Table D, are based on a scale of 0 to 100 where 0 is no effect and 100 is complete control. A dash (-) response means no test result.

[25] = tested on: ducksalad; assay: Test D flooded paddy test; type: in vivo, Heteranthera limosa; details: 250 g ai/ha, applied to paddy water, visual rating after 13 to 14 days, scale 0 to 100 (0 no effect, 100 complete control)
Method: as §2

[26] = tested on: rice; assay: Test D flooded paddy test; type: in vivo, Oryza sativa; details: 250 g ai/ha, applied to paddy water, visual rating after 13 to 14 days, scale 0 to 100 (0 no effect, 100 complete control)
Method: as §2

[27] = tested on: sedge, umbrella; assay: Test D flooded paddy test; type: in vivo, Cyperus difformis; details: 250 g ai/ha, applied to paddy water, visual rating after 13 to 14 days, scale 0 to 100 (0 no effect, 100 complete control)
Method: as §2

[28] = 125 g ai/ha, postemergence, 0 to 100 scale, 0 no effect, 100 complete control
[29] = Postemergence, 500 g ai/ha, visual 0 to 100 scale (0 no effect, 100 complete control)

SMILES: CCc1ncn(-c2ccc(OC)c(C(=O)N3C[C@H](COC)Oc4c(Cl)cccc43)c2)n1 [Compound 231]
- Plant response rating, Barnyardgrass [1]: 100
- Barnyardgrass plant response rating [1]: 60
- Plant response rating, Blackgrass [2]: 90
- Blackgrass plant response rating [2]: 60
- Plant response rating, Corn [3]: 30
- Corn plant response rating [3]: 10
- Plant response rating, Foxtail, Green [4]: 100
- Foxtail, Green plant response rating [4]: 100
- Plant response rating, Kochia [5]: 100
- Kochia plant response rating [5]: 90
- Plant response rating, Oat, Wild [6]: 80
- Oat, Wild plant response rating [6]: 40
- Plant response rating, Pigweed, Palmer [7]: 100
- Pigweed, Palmer plant response rating [7]: 100
- Plant response rating, Ragweed [8]: 90
- Ragweed plant response rating [8]: 50
- Plant response rating, Ryegrass, Italian [9]: 90
- Ryegrass, Italian plant response rating [9]: 70
- Plant response rating, Soybean [10]: 70
- Soybean plant response rating [10]: 60
- Plant response rating, Wheat [11]: 80
- Wheat plant response rating [11]: 40
- Plant response rating, Barnyardgrass [12, 28]: 80
- Plant response rating, Barnyardgrass [12, 29]: 90
- Plant response rating, Blackgrass [13, 28]: 80
- Plant response rating, Blackgrass [13, 29]: 90
- Plant response rating, Corn [14, 28]: 70
- Plant response rating, Corn [14, 29]: 90
- Plant response rating, Kochia [15, 28]: 80
- Plant response rating, Kochia [15, 29]: 90
- Plant response rating, Oat, Wild [16, 28]: 50
- Plant response rating, Oat, Wild [16, 29]: 90
- Plant response rating, Pigweed, Palmer [17, 28]: 90
- Plant response rating, Pigweed, Palmer [17, 29]: 90
- Plant response rating, Ragweed [18, 28]: 70
- Plant response rating, Ragweed [18, 29]: 70
- Plant response rating, Ryegrass, Italian [19, 28]: 90
- Plant response rating, Ryegrass, Italian [19, 29]: 100
- Plant response rating, Soybean [20, 28]: 100
- Plant response rating, Soybean [20, 29]: 100
- Plant response rating, Wheat [21, 28]: 50
- Plant response rating, Wheat [21, 29]: 90
- Plant response rating, Galium [22, 28]: 100
- Plant response rating, Galium [22, 29]: 100
- Plant response rating, Horseweed [23, 28]: 60
- Plant response rating, Horseweed [23, 29]: 90
- Plant response rating, Barnyardgrass (Flood) [24]: 15
- Plant response rating, Ducksalad (Flood) [25]: 85
- Plant response rating, Rice (Flood) [26]: 0
- Plant response rating, Sedge, Umbrella (Flood) [27]: 100

SMILES: COC[C@H]1CN(C(=O)c2cccc(-n3cnc(C(C)(C)O)n3)c2)c2cccc(Cl)c2O1 [Compound 253]
- Plant response rating, Barnyardgrass [1]: 60
- Barnyardgrass plant response rating [1]: 50
- Plant response rating, Blackgrass [2]: 50
- Blackgrass plant response rating [2]: 20
- Plant response rating, Corn [3]: 10
- Corn plant response rating [3]: 0
- Plant response rating, Foxtail, Green [4]: 100
- Foxtail, Green plant response rating [4]: 80
- Plant response rating, Kochia [5]: 80
- Kochia plant response rating [5]: 60
- Plant response rating, Oat, Wild [6]: 90
- Oat, Wild plant response rating [6]: 30
- Plant response rating, Pigweed, Palmer [7]: 100
- Pigweed, Palmer plant response rating [7]: 90
- Plant response rating, Ragweed [8]: 80
- Ragweed plant response rating [8]: 20
- Plant response rating, Ryegrass, Italian [9]: 60
- Ryegrass, Italian plant response rating [9]: 40
- Plant response rating, Soybean [10]: 80
- Soybean plant response rating [10]: 40
- Plant response rating, Wheat [11]: 50
- Wheat plant response rating [11]: 0
- Plant response rating, Barnyardgrass [12, 28]: 20
- Plant response rating, Barnyardgrass [12, 29]: 30
- Plant response rating, Blackgrass [13, 28]: 40
- Plant response rating, Blackgrass [13, 29]: 80
- Plant response rating, Corn [14, 28]: 20
- Plant response rating, Corn [14, 29]: 80
- Plant response rating, Kochia [15, 28]: 80
- Plant response rating, Kochia [15, 29]: 80
- Plant response rating, Oat, Wild [16, 28]: 50
- Plant response rating, Oat, Wild [16, 29]: 90
- Plant response rating, Pigweed, Palmer [17, 29]: 70
- Plant response rating, Ragweed [18, 28]: 70
- Plant response rating, Ragweed [18, 29]: 70
- Plant response rating, Ryegrass, Italian [19, 28]: 50
- Plant response rating, Ryegrass, Italian [19, 29]: 50
- Plant response rating, Soybean [20, 28]: 100
- Plant response rating, Soybean [20, 29]: 100
- Plant response rating, Wheat [21, 28]: 20
- Plant response rating, Wheat [21, 29]: 70
- Plant response rating, Galium [22, 28]: 100
- Plant response rating, Galium [22, 29]: 100
- Plant response rating, Horseweed [23, 28]: 0
- Plant response rating, Horseweed [23, 29]: 20
- Plant response rating, Barnyardgrass (Flood) [24]: 0
- Plant response rating, Ducksalad (Flood) [25]: 85
- Plant response rating, Rice (Flood) [26]: 10
- Plant response rating, Sedge, Umbrella (Flood) [27]: 70
